Experimental data reported in patent US10253002B2, “Compounds and methods of treating infections” (Neoculi Pty Ltd., priority 2013, dated 2019).
Like-named read-outs stand apart in the source and are kept apart here.

Tests used:
[1] = tested on: vancomycin-resistant Enterococcus spp. (VRE); assay: Broth microdilution MIC (CLSI), Example 1; type: cell-based
Description: (§1) Cation adjusted Mueller Hinton Broth (CAMHB) was prepared using 100 mL sterile Mueller Hinton broth (pH adjusted). To each 100 mL volume, 125 μL of calcium stock solution (10 mg Ca^2+ per ml) and 43 μL magnesium stock solution (10 mg Mg^2+ per mL) was aseptically added. Sufficient broth is made up for daily use, with unused portions being stored at 4° C. overnight.
(§2) Potency was described as 1000 mg/g or 100%. The powder was dissolved in 10 mL DMSO and 1 mL volumes were aliquoted into eppendorf tubes and stored at −80° C.
(§3) Serial dilutions were prepared in 96 well plates were set up in a safety cabinet according to methods standard in the art. Briefly: 90 μL of the working antibiotic solution was added to each well in Column 12 of the plate, and mixed well, before 90 μL was transferred to column 11. The solutions were mixed again, and then transferred to the next column as before, continuing the dilutions through to column 3. Mixing the well requires the pick up and expulsion of 90 μL in each well 3-4 times before picking up and transferring the 90 μL to the next well. […] The trays were set up as follows: 2 strains were tested in duplicate in one tray, such that strain 1 was located in rows A to D, strain 2 was located in rows E to H, etc.
(§4) Fresh cultures of bacteria were prepared for testing on sheep blood agar (SBA), and overnight incubation at 37° C. as follows; 2-3 colonies of each strain in 7 mL sterile saline, and the OD600 measured as an indication of the density (approx. […] or 0.5 McFarland Standard). The bacterial suspension was adjusted to a final absorbance of 0.08 to 0.100, using saline to achieve correct density, and as the blank. Within 15 minutes of preparation, the adjusted bacterial suspension with sterile saline 1:20 (1 mL into 19 mL sterile saline) to achieve a final bacterial concentration of 4 to 5×10^6 CFU/mL. The bacterial solution was placed into a sterile trough and 10 μL of bacterial solution added into wells 2 through to 12 on each required row (dilution of 1:10, with final concentration of bacteria in wells=5×10^5 CFU/mL). The tray was sealed and incubated at 37° C. for 18-24 h. The purity of bacterial suspension was confirmed by streaking out 50 μL of the 1:20 dilution onto a SBA plate, which was incubated for 37° C. for 18 h and examined. Viable counts were carried out to ensure that the correct concentration of bacteria and been added to the wells. The diluted bacterial solution (4 to 5×10^6 CFU/mL) was diluted 1:10 downwards by adding 100 μL to 900 μL of sterile saline in sterile tubes, and the serial dilutions continued 1:10 for 5 tubes. 100 μL (4-5 drops) of the 4th and 5th dilutions (tube 4=105 and tube 5=10^6 CFU/ml) was plated around in duplicate on pre-dried PCA agar plates and incubated at 37° C. overnight. The following day the number of colonies on the plates was counted and the average count in 100 μL obtained. The study was multiplied by 10 to obtain a viable bacterial count per mL.
(§5) Minimum inhibitory concentrations (μg/mL) were determined using the broth microdilution method recommended by the Clinical and Laboratory Standards Institute (CLSI) (Methods for Dilution Antimicrobial Susceptibility Tests for Bacteria That Grow Aerobically; Approved Standard—Seventh Edition. CLSI M7-A7, 2006; Performance Standards for Antimicrobial Disk and Dilution Susceptibility Tests for Bacteria Isolated from Animals; Approved Standard—Second Edition. CLSI M31-A2, 2002; Performance Standards for Antimicrobial Susceptibility Testing; CLSI M2-A9, 2006).
MIC breakpoints were determined by visual assessment and then confirmed using an ELISA plate reader, measuring absorbance levels at 450 nm. Bacterial growth (turbidity) in the wells with antimicrobial was compared with the amount of growth (turbidity) in the growth-control well (containing no antimicrobial).

[2] = tested on: methicillin-resistant Staphylococcus aureus (MRSA); assay: Broth microdilution MIC (CLSI), Example 1; type: cell-based
Description: as §1, §2
For Staphylococcus aureus, a working solution of 256 μg/mL was prepared by diluting stock solutions as described above 1:100 in CAMHB (100 μL into 9.9 mL).
as §3, §4, §5
MIC breakpoints were determined by visual assessment and then confirmed using an ELISA plate reader, measuring absorbance levels at 450 nm.

CC1(C)S[C@@H]2[C@H](NC(=O)[C@H](N)c3ccccc3)C(=O)N2[C@H]1C(=O)O [Ampicillin]
2 µg/mL: MIC90 ([1]; E. faecium, 16 isolates, read-out: MIC90) | MIC90 ([1]; Enterococcus isolates of Table 4, Test 2) | MIC ([1]; Enterococcus, VRE, B09/2032, Test 1, read-out: MIC) | MIC ([1]; Enterococcus, VRE, B09/2032, Test 2, read-out: MIC) | MIC ([1]; Enterococcus, VRE, B09/2087, Test 1, read-out: MIC) | MIC ([1]; Enterococcus, VRE, Enterococcus 010, Test 1, read-out: MIC) | MIC ([1]; Enterococcus, VRE, Enterococcus 010, Test 2, read-out: MIC) | MIC ([1]; Enterococcus, VRE, Enterococcus 013, Test 1, read-out: MIC) | MIC ([1]; Enterococcus, VRE, Enterococcus 013, Test 2, read-out: MIC) | MIC90 ([1]; VRE, 20 isolates) | MIC90 ([1]; VRE, Enterococcus isolates of Table 4, Test 1, read-out: MIC90) | MIC ([2]; Staphylococcus aureus, ATCC 29213 / MRSA, S. aureus strain ATCC 29213, read-out: MIC of control strain (internal quality control)) | MIC ([2]; Staphylococcus aureus, ATCC 29213 / MRSA, Staph. aureus ATCC 29213, Test 1, read-out: MIC) | MIC ([2]; Staphylococcus aureus, ATCC 29213 / MRSA, Staph. aureus ATCC 29213, Test 2, read-out: MIC)
8 µg/mL: MIC ([2]; Staphylococcus aureus, MRSA, MRSA 741, Test 1, read-out: MIC) | MIC ([2]; Staphylococcus aureus, MRSA, MRSA 741, Test 2, read-out: MIC)
> 128 µg/mL: MIC90 ([2]; MRSA, 21 isolates) | MIC90 ([2]; MRSA, Staphylococcus aureus isolates of Table 3, Test 1, read-out: MIC90) | MIC ([2]; Staphylococcus aureus, MRSA, 21 isolates, read-out: MIC mode) | MIC ([2]; Staphylococcus aureus, MRSA, MRSA 570, Test 1, read-out: MIC) | MIC ([2]; Staphylococcus aureus, MRSA, MRSA 570, Test 2, read-out: MIC) | MIC ([2]; Staphylococcus aureus, MRSA, MRSA 580, Test 1, read-out: MIC) | MIC ([2]; Staphylococcus aureus, MRSA, MRSA 580, Test 2, read-out: MIC) | MIC ([2]; Staphylococcus aureus, MRSA, MRSA 713, Test 1, read-out: MIC) | MIC ([2]; Staphylococcus aureus, MRSA, MRSA 713, Test 2, read-out: MIC) | MIC ([2]; Staphylococcus aureus, MRSA, MRSA 718, Test 1, read-out: MIC) | MIC ([2]; Staphylococcus aureus, MRSA, MRSA 718, Test 2, read-out: MIC) | MIC ([2]; Staphylococcus aureus, MRSA, MRSA 734, Test 1, read-out: MIC) | MIC ([2]; Staphylococcus aureus, MRSA, MRSA 734, Test 2, read-out: MIC) | MIC ([2]; Staphylococcus aureus, MRSA, MRSA 747, Test 1, read-out: MIC) | MIC ([2]; Staphylococcus aureus, MRSA, MRSA 747, Test 2, read-out: MIC) | MIC ([2]; Staphylococcus aureus, MRSA, MRSA 778, Test 1, read-out: MIC) | MIC ([2]; Staphylococcus aureus, MRSA, MRSA 778, Test 2, read-out: MIC) | MIC ([2]; Staphylococcus aureus, MRSA, MRSA 787, Test 1, read-out: MIC) | MIC ([2]; Staphylococcus aureus, MRSA, MRSA 787, Test 2, read-out: MIC) | MIC ([2]; Staphylococcus aureus, MRSA, MRSA 823, Test 1, read-out: MIC) | MIC ([2]; Staphylococcus aureus, MRSA, MRSA 823, Test 2, read-out: MIC)
128 µg/mL: MIC ([2]; Staphylococcus aureus, MRSA, MRSA 610, Test 1, read-out: MIC) | MIC ([2]; Staphylococcus aureus, MRSA, MRSA 610, Test 2, read-out: MIC) | MIC ([2]; Staphylococcus aureus, MRSA, MRSA 773, Test 1, read-out: MIC) | MIC ([2]; Staphylococcus aureus, MRSA, MRSA 844, Test 1, read-out: MIC) | MIC ([2]; Staphylococcus aureus, MRSA, MRSA 844, Test 2, read-out: MIC)
>128 µg/mL: MIC90 ([2]; Staphylococcus aureus isolates of Table 3, Test 2)
0.5 µg/mL: MIC ([1]; Enterococcus, VRE, Enterococcus 012, Test 1, read-out: MIC) | MIC ([1]; Enterococcus, VRE, Enterococcus 012, Test 2, read-out: MIC) | MIC ([1]; Enterococcus, VRE, VRE 001, Test 1, read-out: MIC) | MIC ([1]; Enterococcus, VRE, VRE 001, Test 2, read-out: MIC) | MIC ([1]; Enterococcus, VRE, VRE 003, Test 1, read-out: MIC) | MIC ([1]; Enterococcus, VRE, VRE 003, Test 2, read-out: MIC)
64 µg/mL: MIC ([2]; Staphylococcus aureus, MRSA, MRSA 616, Test 1, read-out: MIC) | MIC ([2]; Staphylococcus aureus, MRSA, MRSA 616, Test 2, read-out: MIC) | MIC ([2]; Staphylococcus aureus, MRSA, MRSA 622, Test 1, read-out: MIC) | MIC ([2]; Staphylococcus aureus, MRSA, MRSA 622, Test 2, read-out: MIC) | MIC ([2]; Staphylococcus aureus, MRSA, MRSA 698, Test 1, read-out: MIC) | MIC ([2]; Staphylococcus aureus, MRSA, MRSA 698, Test 2, read-out: MIC) | MIC ([2]; Staphylococcus aureus, MRSA, MRSA 728, Test 1, read-out: MIC) | MIC ([2]; Staphylococcus aureus, MRSA, MRSA 728, Test 2, read-out: MIC) | MIC ([2]; Staphylococcus aureus, MRSA, MRSA 773, Test 2, read-out: MIC) | MIC ([2]; Staphylococcus aureus, MRSA, MRSA 786, Test 2, read-out: MIC) | MIC ([2]; Staphylococcus aureus, MRSA, MRSA 815, Test 1, read-out: MIC) | MIC ([2]; Staphylococcus aureus, MRSA, MRSA 815, Test 2, read-out: MIC) | MIC50 ([2]; Staphylococcus aureus, MRSA, 21 isolates)
32 µg/mL: MIC ([2]; Staphylococcus aureus, MRSA, MRSA 516, Test 1, read-out: MIC) | MIC ([2]; Staphylococcus aureus, MRSA, MRSA 516, Test 2, read-out: MIC) | MIC ([2]; Staphylococcus aureus, MRSA, MRSA 606, Test 1, read-out: MIC) | MIC ([2]; Staphylococcus aureus, MRSA, MRSA 606, Test 2, read-out: MIC) | MIC ([2]; Staphylococcus aureus, MRSA, MRSA 786, Test 1, read-out: MIC)
1 µg/mL: MIC range ([1]; E. faecalis, 4 isolates) | MIC50 ([1]; E. faecium, 16 isolates) | MIC range ([1]; E. faecium, 16 isolates) | MIC ([1]; E. faecium, 16 isolates, read-out: MIC mode) | MIC ([1]; Enterococcus faecalis strain ATCC 29212, read-out: MIC of control strain (internal quality control)) | MIC ([1]; Enterococcus, ATCC 29212 / VRE, Enterococcus spp. ATCC 29212, Test 1, read-out: MIC) | MIC ([1]; Enterococcus, ATCC 29212 / VRE, Enterococcus spp. ATCC 29212, Test 2, read-out: MIC) | MIC ([1]; Enterococcus, VRE, 20 isolates, read-out: MIC mode) | MIC ([1]; Enterococcus, VRE, B09/2021, Test 1, read-out: MIC) | MIC ([1]; Enterococcus, VRE, B09/2021, Test 2, read-out: MIC) | MIC ([1]; Enterococcus, VRE, B09/2087, Test 2, read-out: MIC) | MIC ([1]; Enterococcus, VRE, B09/2088, Test 1, read-out: MIC) | MIC ([1]; Enterococcus, VRE, B09/2088, Test 2, read-out: MIC) | MIC ([1]; Enterococcus, VRE, B09/2121, Test 1, read-out: MIC) | MIC ([1]; Enterococcus, VRE, B09/2121, Test 2, read-out: MIC) | MIC ([1]; Enterococcus, VRE, B09/2192, Test 1, read-out: MIC) | MIC ([1]; Enterococcus, VRE, B09/2192, Test 2, read-out: MIC) | MIC ([1]; Enterococcus, VRE, Enterococcus 008, Test 1, read-out: MIC) | MIC ([1]; Enterococcus, VRE, Enterococcus 008, Test 2, read-out: MIC) | MIC ([1]; Enterococcus, VRE, Enterococcus 009, Test 1, read-out: MIC) | MIC ([1]; Enterococcus, VRE, Enterococcus 009, Test 2, read-out: MIC) | MIC ([1]; Enterococcus, VRE, Enterococcus 011, Test 1, read-out: MIC) | MIC ([1]; Enterococcus, VRE, Enterococcus 011, Test 2, read-out: MIC) | MIC ([1]; Enterococcus, VRE, Enterococcus 014, Test 1, read-out: MIC) | MIC ([1]; Enterococcus, VRE, Enterococcus 014, Test 2, read-out: MIC) | MIC ([1]; Enterococcus, VRE, VRE 002, Test 1, read-out: MIC) | MIC ([1]; Enterococcus, VRE, VRE 002, Test 2, read-out: MIC) | MIC ([1]; Enterococcus, VRE, VRE 004, Test 1, read-out: MIC) | MIC ([1]; Enterococcus, VRE, VRE 004, Test 2, read-out: MIC) | MIC ([1]; Enterococcus, VRE, VRE 005, Test 1, read-out: MIC) | MIC ([1]; Enterococcus, VRE, VRE 005, Test 2, read-out: MIC) | MIC ([1]; Enterococcus, VRE, VRE 006, Test 1, read-out: MIC) | MIC ([1]; Enterococcus, VRE, VRE 006, Test 2, read-out: MIC) | MIC ([1]; Enterococcus, VRE, VRE 007, Test 1, read-out: MIC) | MIC ([1]; Enterococcus, VRE, VRE 007, Test 2, read-out: MIC) | MIC50 ([1]; Enterococcus, VRE, 20 isolates)
